pEC50, pIC50: −log10 of the molar value.
Experiments:
Liver [1] = experiment: Drug metabolism in Sprague-Dawley rat assessed as N-[6-(3-Aminopropyl)-5,11-dioxo-6,11-dihydro-5H-indeno- [1,2-c]isoquinolin-3-yl]acetamide level in liver at 40 mg/kg, po administered 3 days; assay type: ADME, organism-based; design: dose 40 mg/kg, route oral; conditions: in vivo, 72 h
Liver [2] = experiment: Drug metabolism in Sprague-Dawley rat assessed as 6-(3-Hydroxypropyl)-3-amino-5H-indeno[1,2- c]-isoquinoline-5,11(6H)dione level in liver at 40 mg/kg, po administered 3 days; assay type: ADME, organism-based; design: dose 40 mg/kg, route oral; conditions: in vivo, 72 h
Liver microsomes [3] = experiment: Drug metabolism in human liver microsomes assessed as formation of 6-(3-hydroxypropyl)-3-amino-5H-indeno[1,2-c]-isoquinoline-5,11(6H)-dione at 1 uM preincubated for 10 mins prior to NADPH addition measured 60 mins post NADPH addition; assay type: ADME, Microsome; conditions: 1 h
[4] = Drug metabolism in Sprague-Dawley rat assessed as parent compound level in serum at 40 mg/kg, po administered 3 days; assay type: ADME, organism-based; design: dose 40 mg/kg, route oral; conditions: read-out: Drug metabolism
Hepatocyte [5] = experiment: Drug metabolism in human hepatocytes assessed as formation of 6-(3-aminopropyl)-3-((2R,3R,4S,5S,6R)-3,4,5-trihydroxy-6-(hydroxymethyl)tetrahydro-2H-pyran-2-ylamino)-5H-indeno[1,2-c]isoquinoline-5,11(6H)-dione at 50 uM after 4 hrs; assay type: ADME, cell-based
[6] = target: T1, Retinoic acid receptor RXR-alpha (Homo sapiens, UniProt P19793); experiment: Agonist activity at human RXRalpha expressed in african green monkey COS1 cells assessed as induction of RXRE transcriptional activity after 12 hrs by luciferase reporter gene assay; assay type: functional, cell-based, COS-1
T1 sequence (P19793 whole entry): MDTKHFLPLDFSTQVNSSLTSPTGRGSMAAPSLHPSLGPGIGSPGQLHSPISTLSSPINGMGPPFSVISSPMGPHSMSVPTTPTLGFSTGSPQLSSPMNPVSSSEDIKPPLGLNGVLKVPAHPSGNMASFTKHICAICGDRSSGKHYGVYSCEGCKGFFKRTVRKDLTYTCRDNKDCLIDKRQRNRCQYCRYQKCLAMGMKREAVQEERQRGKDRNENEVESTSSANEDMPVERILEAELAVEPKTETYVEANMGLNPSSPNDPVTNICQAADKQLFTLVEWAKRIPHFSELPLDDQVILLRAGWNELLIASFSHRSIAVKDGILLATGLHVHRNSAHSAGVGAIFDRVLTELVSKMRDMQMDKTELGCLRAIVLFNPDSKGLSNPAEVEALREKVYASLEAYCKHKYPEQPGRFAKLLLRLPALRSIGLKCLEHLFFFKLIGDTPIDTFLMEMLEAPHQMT

Hepatocyte [7] = experiment: Drug metabolism in human hepatocytes assessed as formation of 3-Amino-11-hydroxy-6-(3-hydroxypropyl)-6,11-dihydro-5H-5Hindeno[1,2-c]isoquinolin-5-one at 50 uM after 4 hrs; assay type: ADME, cell-based
Hepatocyte [8] = experiment: Drug metabolism in human hepatocytes assessed as formation of 6-(3-Hydroxypropyl)-3-amino 5H-indeno[1,2c]-isoquinoline-5,11(6H)dione at 50 uM after 4 hrs; assay type: ADME, cell-based
HEK293 = experiment: Inhibition of TNFalpha-induced human NFkappaB activity in HEK293 cells at 50 uM incubated for 6 hrs followed by compound wash out measured after 5 mins by luciferase assay; assay type: cell-based
Liver [9] = experiment: Drug metabolism in Sprague-Dawley rat assessed as 3-Amino-6-(3-aminopropyl)-11-hydroxy-6,11-dihydro-5Hindeno[1,2-c]isoquinolin-5-one level in liver at 40 mg/kg, po administered 3 days; assay type: ADME, organism-based; design: dose 40 mg/kg, route oral; conditions: in vivo, 72 h
Liver microsomes [10] = experiment: Half life in human liver microsomes at 1 uM; assay type: ADME, Microsome
[11] = Inhibition of TNFalpha-induced human NFkappaB activity in HEK293 cells incubated for 6 hrs followed by compound wash out measured after 5 mins by luciferase assay; assay type: cell-based
[12] = Drug metabolism in Sprague-Dawley rat assessed as N-[6-(3-Aminopropyl)-5,11-dioxo-6,11-dihydro-5H-indeno- [1,2-c]isoquinolin-3-yl]acetamide level in mammary gland at 40 mg/kg, po administered 3 days; assay type: ADME, organism-based; design: dose 40 mg/kg, route oral; conditions: in vivo, 72 h
Hepatocyte [13] = experiment: Drug metabolism in human hepatocytes assessed as formation of 3-Amino 6-(3-aminopropyl)-11-hydroxy-6,11-dihydro-5H-indeno[1,2-c]isoquinolin-5-one at 50 uM after 4 hrs; assay type: ADME, cell-based
[14] = Drug metabolism in Sprague-Dawley rat assessed as N-[6-(3-Hydroxypropyl)-5,11-dioxo-6,11-dihydro-5Hindeno[1,2-c]isoquinolin-3-yl]acetamide level in mammary gland at 40 mg/kg, po administered 3 days; assay type: ADME, organism-based; design: dose 40 mg/kg, route oral; conditions: in vivo, 72 h
Hepatocyte [15] = experiment: Drug metabolism in human hepatocytes assessed as formation of N-[6-(3-Aminopropyl)-11-hydroxy-5-oxo-6,11-dihydro-5H-5Hindeno[ 1,2-c]isoquinolin-3-yl]acetamide at 50 uM after 4 hrs; assay type: ADME, cell-based
Liver microsomes [16] = experiment: Metabolic stability in human liver microsomes assessed as GSH conjugate formation at 10 uM; assay type: ADME, Microsome
[17] = Cytotoxicity against human HEK293 cells assessed as cell survival at 50 uM relative to control; assay type: cell-based; conditions: read-out: Survival
[18] = Drug metabolism in Sprague-Dawley rat assessed as parent compound level in liver at 40 mg/kg, po administered 3 days; assay type: ADME, organism-based; design: dose 40 mg/kg, route oral; conditions: read-out: Drug metabolism
[19] = Drug metabolism in Sprague-Dawley rat assessed as 3-Amino-6-(3-aminopropyl)-11-hydroxy-6,11-dihydro-5Hindeno[1,2-c]isoquinolin-5-one level in mammary gland at 40 mg/kg, po administered 3 days; assay type: ADME, organism-based; design: dose 40 mg/kg, route oral; conditions: in vivo, 72 h
Liver [20] = experiment: Drug metabolism in Sprague-Dawley rat assessed as N-[6-(3-Hydroxypropyl)-5,11-dioxo-6,11-dihydro-5Hindeno[1,2-c]isoquinolin-3-yl]acetamide level in liver at 40 mg/kg, po administered 3 days; assay type: ADME, organism-based; design: dose 40 mg/kg, route oral; conditions: in vivo, 72 h
[21] = Drug metabolism in Sprague-Dawley rat assessed as parent compound level in mammary gland at 40 mg/kg, po administered 3 days; assay type: ADME, organism-based; design: dose 40 mg/kg, route oral; conditions: read-out: Drug metabolism
Liver microsomes [22] = experiment: Drug metabolism in human liver microsomes assessed as formation of 6-(3-hydroxypropyl)-3-amino-5H-indeno[1,2-c]-isoquinoline-5,11(6H)-dione at 1 uM after 60 mins in presence of NADPH and monoamine oxidase inhibitors clorgiline, pargyline; assay type: ADME, Microsome; conditions: 1 h
Hepatocyte [23] = experiment: Drug metabolism in human hepatocytes assessed as formation of N-[6-(3-Hydroxypropyl)-5,11-dioxo-6,11-dihydro-5H-5Hindeno[ 1,2-c]isoquinolin 3-yl]acetamide at 50 uM after 4 hrs; assay type: ADME, cell-based
[24] = Drug metabolism in Sprague-Dawley rat assessed as 3-Amino-11-hydroxy-6-(3-hydroxypropyl)-6,11-dihydro-5Hindeno[1,2-c]isoquinolin-5-one level in mammary gland at 40 mg/kg, po administered 3 days; assay type: ADME, organism-based; design: dose 40 mg/kg, route oral; conditions: in vivo, 72 h
Liver [25] = experiment: Drug metabolism in Sprague-Dawley rat assessed as 3-Amino-11-hydroxy-6-(3-hydroxypropyl)-6,11-dihydro-5Hindeno[1,2-c]isoquinolin-5-one level in liver at 40 mg/kg, po administered 3 days; assay type: ADME, organism-based; design: dose 40 mg/kg, route oral; conditions: in vivo, 72 h
Hepatocyte [26] = experiment: Drug metabolism in human hepatocytes assessed as formation of N-[6-(3-Aminopropyl)-5,11-dioxo-6,11-dihydro-5H-indeno-[1,2-c]isoquinolin-3-yl]acetamide at 50 uM after 4 hrs; assay type: ADME, cell-based
Serum [27] = experiment: Drug metabolism in Sprague-Dawley rat assessed as 3-Amino-6-(3-aminopropyl)-11-hydroxy-6,11-dihydro-5Hindeno[1,2-c]isoquinolin-5-one level in serum at 40 mg/kg, po administered 3 days; assay type: ADME, organism-based; design: dose 40 mg/kg, route oral; conditions: in vivo, 72 h
Serum [28] = experiment: Drug metabolism in Sprague-Dawley rat assessed as 3-Amino-11-hydroxy-6-(3-hydroxypropyl)-6,11-dihydro-5Hindeno[1,2-c]isoquinolin-5-one level in serum at 40 mg/kg, po administered 3 days; assay type: ADME, organism-based; design: dose 40 mg/kg, route oral; conditions: in vivo, 72 h
Serum [29] = experiment: Drug metabolism in Sprague-Dawley rat assessed as 6-(3-Hydroxypropyl)-3-amino-5H-indeno[1,2- c]-isoquinoline-5,11(6H)dione level in serum at 40 mg/kg, po administered 3 days; assay type: ADME, organism-based; design: dose 40 mg/kg, route oral; conditions: in vivo, 72 h
Liver microsomes [30] = experiment: Drug metabolism in human liver microsomes assessed as formation of 3-Amino 6-(3-aminopropyl)-11-hydroxy-6,11-dihydro-5H-indeno[1,2-c]isoquinolin-5-one at 1 uM preincubated for 10 mins prior to NADPH addition measured 60 mins post NADPH addition; assay type: ADME, Microsome; conditions: 1 h
Serum [31] = experiment: Drug metabolism in Sprague-Dawley rat assessed as N-[6-(3-Hydroxypropyl)-5,11-dioxo-6,11-dihydro-5Hindeno[1,2-c]isoquinolin-3-yl]acetamide level in serum at 40 mg/kg, po administered 3 days; assay type: ADME, organism-based; design: dose 40 mg/kg, route oral; conditions: in vivo, 72 h
Plasma = conditions: human, 10 µM
Description: Plasma protein binding in human plasma at 10 uM

Serum [32] = experiment: Drug metabolism in Sprague-Dawley rat assessed as N-[6-(3-Aminopropyl)-5,11-dioxo-6,11-dihydro-5H-indeno- [1,2-c]isoquinolin-3-yl]acetamide level in serum at 40 mg/kg, po administered 3 days; assay type: ADME, organism-based; design: dose 40 mg/kg, route oral; conditions: in vivo, 72 h
[33] = Drug metabolism in Sprague-Dawley rat assessed as 6-(3-Hydroxypropyl)-3-amino-5H-indeno[1,2- c]-isoquinoline-5,11(6H)dione level in mammary gland at 40 mg/kg, po administered 3 days; assay type: ADME, organism-based; design: dose 40 mg/kg, route oral; conditions: in vivo, 72 h
[34] = Cytotoxicity against african green monkey COS1 cells assessed as cell survival at 50 uM relative to control; assay type: cell-based; conditions: chlorocebus aethiops, COS-1 cells; read-out: Survival

## NCCCn1c2c(c3ccc(N)cc3c1=O)C(=O)c1ccccc1-2
Liver [1]
  Drug metabolism: Active
Liver [2]
  Drug metabolism: Active
Liver microsomes [3]
  Drug metabolism: Active
[4]
  concentration at 72 h: 800 ng/mL
Hepatocyte [5]
  Drug metabolism: Active
[6]
  pEC50: 5.47
Hepatocyte [7]
  Drug metabolism: Active
Hepatocyte [8]
  Drug metabolism: Active
HEK293
  inhibition: 84.9%
Liver [9]
  Drug metabolism: Active
Liver microsomes [10]
  t1/2: 2.17 h
[11]
  pIC50: 4.58
[12]
  Drug metabolism: Not Active
Hepatocyte [13]
  Drug metabolism: Active
[14]
  Drug metabolism: Not Active
Hepatocyte [15]
  Drug metabolism: Active
Liver microsomes [16]
  Stability: Stable
[17]
  viability at 50 µM: 109%
[18]
  concentration at 72 h: 4300 ng/g
[19]
  Drug metabolism: Not Active
Liver [20]
  Drug metabolism: Active
[21]
  concentration at 72 h: 300 ng/g
Liver microsomes [22]
  Drug metabolism: Active
Hepatocyte [23]
  Drug metabolism: Active
[24]
  Drug metabolism: Not Active
Liver [25]
  Drug metabolism: Active
Hepatocyte [26]
  Drug metabolism: Active
Serum [27]
  Drug metabolism: Not Active
Serum [28]
  Drug metabolism: Not Active
Serum [29]
  Drug metabolism: Not Active
Liver microsomes [30]
  Drug metabolism: Active
Serum [31]
  Drug metabolism: Not Active
Plasma
  PPB: 75%
Serum [32]
  Drug metabolism: Active
[33]
  Drug metabolism: Not Active
[34]
  viability at 50 µM: 58.6%

— ChEMBL document CHEMBL2169830, “Identification, synthesis, and biological evaluation of the metabolites of 3-amino-6-(3'-aminopropyl)-5H-indeno[1,2-c]isoquinoline-5,11-(6H)dione (AM6-36), a promising rexinoid lead compound for the development of cancer chemotherapeutic and chemopreventive agents” (J Med Chem, 2012)
